Experimental findings from patent publication US20050196343A1, “Degradable nanoparticles” (Molecular Therapeutics, Inc., priority 2004, published 2005) are described below.

For the experiment, the system named is intracerebral 9L gliomas. The experiment can be described thus: In vivo therapy of glioma using Photofrin-containing nanoparticles with laser (diffusion MRI, Kaplan-Meier survival). Conditions: 9L tumor rats, tail vein administration, FIG. 17. Details: species or system rat. An excerpt: Rats harboring intracerebral 9L gliomas, were allowed to grow to approximately 50 microliters in size, as quantitated using multi-slice T2-weighted MRI. Rats were divided into the following groups: sham (untreated); laser exposure only; intravenous administered photofrin (no nanoparticles); photofrin-encapsulated nanoparticles; and photofrin-encapsulated nanoparticles with F3 targeting (n=5/group). Diffusion MRI scans were obtained prior to treatment and every 2-3 days following treatment. Treatment with laser administration consisted of 750 mW of laser light administered at 630 nm for 7.5 minutes of total exposure time. This was accomplished through the same 1 mm diameter burr hole which was initially made to inject the 9L tumor cells to initiate tumor growth. The depth of the cylindrical laser tip was adjusted, based upon the MRI scan data, to be at the base of the tumor mass in order to optimize light delivery to the overall tumor mass. Diffusion MRI scans were acquired in order to assess in real time, the effectiveness of treatment. Increased diffusion values within the tumor mass reflect areas of cell kill (necrosis) and the magnitude of the increase is proportional to the level of cell killing. As shown in the MRI scans in FIG. 15, control diffusion tumor values are on average at approximately 100 apparent diffusion coefficient units (ADC).

As for Photofrin, the “survival times (Kaplan-Meier)” value was “no significant differences in survival times”.
